Experimental findings from patent US8772504B2, “Substituted benzoxazole, benzimidazole, oxazolopyridine and imidazopyridine derivatives as gamma secretase modulators” (Janssen Pharmaceuticals, Inc., priority 2009, dated 2014) are described below.

The term pIC50 denotes the negative decadic logarithm of the IC50, by convention in mol/L. A low value points to a high IC50.

pIC50: −log10 of the molar value.

One assay concerns Aβ42. Briefly: Screening for γ-secretase-modulating activity, Method 2: Aβ42 Alphalisa on SKNBE2 cell supernatant. Format: cell-based. The note with it: Method 2, Table 3c, SKNBE2 cells carrying APP 695 wild type, overnight incubation. How it is done:
(§1) Screening was carried out using SKNBE2 cells carrying the APP 695—wild type, grown in Dulbecco's Modified Eagle's Medium/Nutrient mixture F-12 (DMEM/NUT-mix F-12) (HAM) provided by Invitrogen (cat no. 10371-029) containing 5% Serum/Fe supplemented with 1% non-essential amino acids, 1-glutamine 2 mM, Hepes 15 mM, penicillin 50 U/ml (units/ml) en streptomycin 50 μg/ml. Cells were grown to near confluency.
(§2) The screening was performed using a modification of the assay as described in Citron et al (1997) Nature Medicine 3: 67. Briefly, cells were plated in a 384-well plate at 10^4 cells/well in Ultraculture (Lonza, BE12-725F) supplemented with 1% glutamine (Invitrogen, 25030-024), 1% non-essential amino acid (NEAA), penicillin 50 U/ml en streptomycin 50 μg/ml in the presence of test compound at different test concentrations. The cell/compound mixture was incubated overnight at 37° C., 5% CO2. The next day the media were assayed by two sandwich immuno-assays, for Aβ42 and Aβtotal.
(§3) Aβtotal and Aβ42 concentrations were quantified in the cell supernatant using the Aphalisa technology (Perkin Elmer). Alphalisa is a sandwich assay using biotinylated antibody attached to streptavidin coated donorbeads and antibody conjugated to acceptor beads. In the presence of antigen, the beads come into close proximity. The excitation of the donor beads provokes the release of singlet oxygen molecules that trigger a cascade of energy transfer in the acceptor beads, resulting in light emission. To quantify the amount of Aβ42 in the cell supernatant, monoclonal antibody specific to the C-terminus of Aβ42 (JRF/cAβ42/26) was coupled to the receptor beads and biotinylated antibody specific to the N-terminus of Aβ (JRF/AβN/25) was used to react with the donor beads. To quantify the amount of Aβtotal in the cell supernatant, monoclonal antibody specific to the N-terminus of Aβ (JRF/AβN/25) was coupled to the receptor beads and biotinylated antibody specific to the mid region of Aβ (biotinylated 4G8) was used to react with the donor beads.
(§4) To obtain the values reported in Table 3c, the data were calculated as percentage of the maximum amount of amyloid Beta 42 measured in the absence of the test compound. The sigmoidal dose response curves were analyzed using non-linear regression analysis with percentage of the control plotted against the log concentration of the compound. A 4-parameter equation was used to determine the IC50.
Background: In Alpha technology, singlet oxygen from a donor bead excites a nearby acceptor bead.

Another assay has as its system Aβtotal. Briefly: Screening for γ-secretase-modulating activity, Method 2: Aβtotal Alphalisa on SKNBE2 cell supernatant. Format: cell-based. Conditions: Method 2, Table 3c, SKNBE2 cells carrying APP 695 wild type, overnight incubation. How it is done:
as §1, §2, §3, §4

For the compound `Cc1cn(-c2ccc(Nc3cc(C)nc4c3nc(-c3ccc(F)cc3)n4C)cc2F)cn1` [Compound 112], the figures for the pIC50 with Aβ42 (Homo sapiens) and in the assay on Aβtotal (Homo sapiens) were 7.72 and below 5.00, respectively.
Consider `COc1cc(Nc2cc(C)nc3c2nc(-c2ccc(F)cc2)n3C)ccc1-n1cnc(C)n1` [Compound 113], for which the pIC50 with Aβ42 (Homo sapiens) is 7.46; in the assay with Aβtotal (Homo sapiens) it was below 5.00.
The matching figures for `COCc1cn(-c2ccc(Nc3cccc4c3nc(-c3ccc(F)cc3)n4C)cc2OC)cn1` [Compound 119]: 7.19 and below 5.00.
Take `COc1cc(Nc2cccc3c2nc(C2(c4ccc(Cl)cc4)CC2)n3C)ccc1-n1cnc(C)n1` [Compound 123]: the values for the pIC50 in the assay with Aβ42 and in the assay on Aβtotal were 6.84 and below 5.00, respectively.
The matching figures for `Cc1cn(-c2ccc(Nc3cccc4c3nc(-c3ccc(=O)n(C)c3)n4C)cc2F)cn1` [Compound 124]: 5.41 and below 5.00.
Take `Cc1cn(-c2ccc(Nc3cc(F)cc4c3nc(-c3ccc(F)cc3)n4C(C)C)cc2F)cn1` [Compound 125]: the pIC50 in the assay on Aβ42 is 7.59; in the assay on Aβtotal, below 5.00.
`COc1cc(Nc2cccc3c2nc(-c2cccc(Cl)c2)n3C(C)C)ccc1-n1cnc(C)n1` [Compound 126]: the pIC50 is 7.72 with Aβ42 and below 5.00 with Aβtotal.
For `COc1nc(Nc2cccc3c2nc(-c2cc(F)cc(C(F)(F)F)c2)n3C)ccc1-n1cnc(C)c1` [Compound 132], the negative-log IC50 (pIC50) is 8.30 in the assay with Aβ42 and 5.34 with Aβtotal.
Take `COc1nc(Nc2cccc3c2nc(-c2ccc(F)c(Br)c2)n3C)ccc1-n1cnc(C)c1` [Compound 133]: the pIC50 with Aβ42 (Homo sapiens) is 8.05; with Aβtotal (Homo sapiens) it was below 5.00.
For the compound `COc1cc(-c2nc3c(Nc4ccc(-n5cnc(C)c5)c(OC)n4)cccc3n2C)ccc1Cl` [Compound 134], the pIC50 with Aβ42 is 8.30; in the assay with Aβtotal, 5.16.
The matching figures for `COc1cc(-c2nc3c(Nc4ccc(-n5cnc(C)n5)c(OC)c4)nc(C)cc3n2C)ccc1Cl` [Compound 135]: 8.00 and below 5.00.
For the compound `COc1ccccc1-c1nc2c(Nc3ccc(-n4cnc(C)c4)c(F)c3)nc(C)cc2n1C` [Compound 138], the values for the pIC50 in the assay with Aβ42 and in the assay on Aβtotal were 6.90 and below 5.00, respectively.
Regarding `Cc1cn(-c2ccc(Nc3nc(C)cc4c3nc(-c3ccccc3Cl)n4C)cc2F)cn1` [Compound 139], the pIC50 is 7.46 with Aβ42 and below 5.00 in the assay with Aβtotal.
In the case of `COc1cc(-c2nc3c(Nc4ccc(-n5cnc(C)c5)c(OC)n4)cc(F)cc3n2C)ccc1Cl` [Compound 140], the negative-log IC50 (pIC50) with Aβ42 was 8.40; in the assay with Aβtotal it was below 5.00.
Consider `Cc1cn(-c2ccc(Nc3nc(C)cc4c3nc(-c3cccnc3)n4C)cc2F)cn1` [Compound 143], for which the pIC50 in the assay with Aβ42 is 6.26; in the assay with Aβtotal, below 5.00.
With `COc1ccc(-c2nc3c(Nc4ccc(-n5cnc(C)c5)c(F)c4)nc(C)cc3n2C)c(F)c1` [Compound 144], the pIC50 is 6.84 with Aβ42 and below 5.00 with Aβtotal.
`COc1nc(Nc2cccc3c2nc(-c2ccc(=O)n(C)c2)n3C)ccc1-n1cnc(C)c1` [Compound 146]: the results for the pIC50 in the assay on Aβ42 and with Aβtotal were 6.46 and below 5.00, respectively.
`COc1cc(Nc2nc(C)cc3c2nc(-c2ccccc2Cl)n3C)ccc1-n1cnc(C)n1` [Compound 147]: the pIC50 is 7.36 with Aβ42 and 5.10 in the assay on Aβtotal.
The matching figures for `COc1cccc(-c2nc3c(Nc4ccc(-n5cnc(C)c5)c(OC)n4)cccc3o2)c1` [Compound 152]: 6.63 and 5.09.
The matching figures for `CCOc1cccc(-c2nc3c(Nc4ccc(-n5cnc(C)c5)c(F)c4)nc(C)cc3n2C)c1` [Compound 153]: 7.92 and 5.19.
`Cc1cc2c(nc(-c3ccc(F)cc3)n2C)c(Nc2ccc(-n3cc(C)nc3I)c(F)c2)n1` [Compound 154]: the pIC50 in the assay with Aβ42 (Homo sapiens) was 7.72; in the assay with Aβtotal (Homo sapiens) it was 6.25.
As to `Cc1cn(-c2ccc(Nc3nc(C)cc4c3nc(-c3ccc(F)c(Br)c3)n4C)cc2F)cn1` [Compound 155], the pIC50 in the assay on Aβ42 is 8.10; in the assay on Aβtotal it was below 5.00.
In the same order, the values of `COc1cc(Nc2cncc3c2nc(-c2ccc(F)cc2)n3C)ccc1-n1cnc(C)n1` [Compound 158] are 6.78 and below 5.00.
In the same order, the values of `COc1nc(Nc2cccc3c2nc(-c2ccc(F)cc2)n3C)ccc1-n1cnc(C)n1` [Compound 161] are 8.15 and below 5.00.
In the case of `COc1nc(Nc2cccc3c2nc(-c2ccc(C(F)(F)F)cc2)n3C)ccc1-n1cnc(C)c1` [Compound 168], the figures for the negative logarithm of the IC50 (pIC50) in the assay on Aβ42 and in the assay with Aβtotal were 8.10 and 5.11, respectively.
For the compound `COc1nc(Nc2cccc3c2nc(-c2ccc(F)c(I)c2)n3C)ccc1-n1cnc(C)c1` [Compound 169], the pIC50 with Aβ42 is 8.30; with Aβtotal it was below 5.00.
In the case of `COc1nc(Nc2cccc3c2nc(-c2ccccc2OC(F)(F)F)n3C)ccc1-n1cnc(C)c1` [Compound 170], the pIC50 in the assay with Aβ42 was 7.44; in the assay on Aβtotal, 5.04.
In the same order, the values of `COc1nc(Nc2cccc3c2nc(-c2cccc(F)c2)n3C)ccc1-n1cnc(C)c1` [Compound 171] are 7.57 and below 5.00.
`COc1nc(Nc2cccc3c2nc(-c2ccccc2C(F)(F)F)n3C)ccc1-n1cnc(C)c1` [Compound 172]: the figures for the pIC50 in the assay on Aβ42 and with Aβtotal were 7.64 and below 5.00, respectively.
The matching figures for `COc1nc(Nc2cccc3c2nc(-c2cccc(N(C)C)c2)n3C)ccc1-n1cnc(C)c1` [Compound 173]: 7.70 and 5.10.
In the same order, the values of `COc1nc(Nc2cccc3c2nc(-c2ccc(F)c(F)c2)n3C)ccc1-n1cnc(C)c1` [Compound 175] are 7.68 and below 5.00.
With `COc1nc(Nc2cccc3c2nc(-c2cccc(F)c2F)n3C)ccc1-n1cnc(C)c1` [Compound 176], the values for the pIC50 with Aβ42 and with Aβtotal were 7.64 and below 5.00, respectively.
In the same order, the values of `COc1cccc(-c2nc3c(Nc4ccc(-n5cnc(C)c5)c(OC)n4)cccc3n2C)c1` [Compound 177] are 7.70 and 5.05.
The matching figures for `COc1ccc(-c2nc3c(Nc4ccc(-n5cnc(C)c5)c(OC)n4)cccc3n2C)cc1` [Compound 178]: 7.64 and below 5.00.
Consider `CCOc1cccc(-c2nc3c(Nc4ccc(-n5cnc(C)c5)c(OC)n4)cccc3n2C)c1` [Compound 179], for which the pIC50 is 7.96 in the assay with Aβ42 and 5.10 in the assay with Aβtotal.
Turning to `COc1ccc(F)c(-c2nc3c(Nc4ccc(-n5cnc(C)c5)c(OC)n4)cccc3n2C)c1` [Compound 180], the pIC50 with Aβ42 is 7.74; in the assay with Aβtotal, below 5.00.
In the case of `COc1ccc(-c2nc3c(Nc4ccc(-n5cnc(C)c5)c(OC)n4)cccc3n2C)c(F)c1` [Compound 182], the pIC50 is 7.41 in the assay with Aβ42 and below 5.00 in the assay with Aβtotal.
Consider `COc1cc(-c2nc3c(Nc4ccc(-n5cnc(C)c5)c(OC)n4)cccc3n2C)cc(C(F)(F)F)c1` [Compound 183], for which the pIC50 in the assay with Aβ42 is 8.00; in the assay with Aβtotal, 5.04.
Regarding `COc1nc(Nc2cccc3c2nc(-c2ccc(F)cc2C)n3C)ccc1-n1cnc(C)c1` [Compound 185], the results for the pIC50 with Aβ42 and in the assay with Aβtotal were 7.60 and below 5.00, respectively.
In the same order, the values of `COc1cc(F)cc(-c2nc3c(Nc4ccc(-n5cnc(C)c5)c(OC)n4)cccc3n2C)c1` [Compound 188] are 7.85 and 5.08.
`COc1nc(Nc2cccc3c2nc(-c2ccc(F)cc2F)n3C)ccc1-n1cnc(C)c1` [Compound 190]: the pIC50 in the assay with Aβ42 is 7.59; in the assay with Aβtotal, below 5.00.
The matching figures for `COc1nc(Nc2cccc3c2nc(-c2ccc(OC(F)(F)F)cc2)n3C)ccc1-n1cnc(C)c1` [Compound 191]: 7.74 and below 5.00.
For `COc1nc(Nc2cccc3c2nc(-c2ccc(F)c(C(F)(F)F)c2)n3C)ccc1-n1cnc(C)c1` [Compound 192], the pIC50 in the assay with Aβ42 is 7.89; with Aβtotal, 5.05.
The matching figures for `COc1nc(Nc2cccc3c2nc(-c2ccccc2F)n3C)ccc1-n1cnc(C)c1` [Compound 193]: 7.41 and 5.15.
The matching figures for `COc1ccc(-c2nc3c(Nc4ccc(-n5cnc(C)c5)c(OC)n4)cccc3n2C)c(C)c1` [Compound 194]: 7.66 and below 5.00.
The matching figures for `COc1nc(Nc2cccc3c2nc(-c2cc(C(F)(F)F)ccc2C)n3C)ccc1-n1cnc(C)c1` [Compound 195]: 7.60 and 5.19.
As to `COc1nc(Nc2cccc3c2nc(-c2ccccc2)n3C)ccc1-n1cnc(C)c1` [Compound 196], the pIC50 in the assay with Aβ42 was 7.72; with Aβtotal, 5.07.
